# From patent publication US20050209310A1, “Methods for modulating tumor growth and metastasis” (priority 2000, published 2005)
# Legend:
# [1] = tested on: ES2 human clear cell ovarian carcinoma; assay: Multi-drug resistant ES2 ovarian carcinoma model, tumor size and survival; type: in vivo, Fox Chase CB-17 SCID mice
# Protocol: The multi-drug resistant ES2 human clear cell ovarian carcinoma was established by subcutaneous injection of cultured ES2 cells in Fox Chase CB-17 SCID mice. In one experiment, tumor-bearing mice were administered CA4P at a dose of 100 mg/kg (Group II), saline carrier only (Group I), an intraperitoneal (i.p.) injection of paclitaxel at a dose of 9 mg/kg, followed 30 minutes later by an infusion of carboplatin at a dose of 30 mg/kg […], or CA4P (100 mg/kg) followed 24 hours later by paclitaxel and carboplatin as in Group II (Group IV). Treatment with anticancer agents was performed once a week for 4 weeks (i.e. on Day 11, 19, 26, and 33). Tumors in each treatment group (n=2) were measured every 4 days by width and length. Tumor size (i.e. volume) was calculated according to the following formula: Length×Width^2×0.4.
# In a second experiment, tumor-bearing mice were administered CA1P and/or carboplatin and paclitaxel in the same treatment regime as the first experiment.
# [2] = tested on: N87 human gastric carcinoma; assay: Single agent antitumor activity, N87 xenograft model; settings: in vivo
# [3] = tested on: A2780 human ovarian tumor xenografts; assay: Tumor perfusion studies of CA1P, A2780 xenografts
# [4] = tested on: M5076 murine fibrosarcoma; assay: In vivo antitumor testing, sc M5076 murine fibrosarcoma; settings: for complete response (disappearance of tumors): CA1P + carboplatin vs either agent alone (FIG. 11); for minimum effective dose required for synergistic enhancement: in combination with carboplatin (FIG. 10)
# Protocol: (§1) The following protocols are provided to facilitate the practice of Examples I and II. • Drug administration: For administration to rodents, CA4P was dissolved in normal saline (0.9% NaCl). Paclitaxel was dissolved in a 50/50 mixture of ethanol and Cremophor® and stored at 4° C.; final dilution of paclitaxel was obtained immediately before drug administration with NaCl 0.9%. Fresh preparation of paclitaxel was employed to avoid precipitation. CPT-11 was dissolved in normal saline. • The volume of all compounds injected was 0.01 ml/g of mice, and 0.005 ml/g of rats. • In Vivo Antitumor Testing: The following tumor models were used: A2780 human ovarian carcinoma, the murine fibrosarcoma M5076 and M5076/ddp (resistant to cisplatin and carboplatin).
# (§2) The human tumors were maintained in Balb/c nu/nu nude mice. M5076 and M5076ddp were maintained in C57BL/6 mice. Tumors were propagated as subcutaneous transplants in the appropriate mouse strain using tumor fragments obtained from donor mice.
# (§3) The following tumors were passaged in the indicated host strain of mouse: murine M5076 fibrosarcoma (M5076) in C57B1/6 mice; human A2780 ovarian carcinomas in nude mice. Tumor passage occurred biweekly for murine tumors and approximately every two to three weeks for the human tumor line. With regard to efficacy testing, M5076 and M507 6ddp tumors were implanted in (C57B1/6×DBA/2)F1 hybrid mice, and human tumors were implanted in nude mice. All tumor implants for efficacy testing were subcutaneous (sc).
# The required numbers of animals needed to detect a meaningful response were pooled at the start of the experiment and each was given a subcutaneous implant of a tumor fragment (˜50 mg) with a 13-gauge trocar. For treatment of early-stage tumors, the animals were again pooled before distribution to the various treatment and control groups. For treatment of animals with advanced-stage disease, tumors were allowed to grow to the predetermined size window (tumors outside the range were excluded) and animals were evenly distributed to various treatment and control groups. Treatment of each animal was based on individual body weight. Treated animals were checked daily for treatment related toxicity/mortality. Each group of animals was weighed before the initiation of treatment (Wt1) and then again following the last treatment dose (Wt2). The difference in body weight (Wt2−Wt1) provides a measure of treatment-related toxicity.
# Tumor response was determined by measurement of tumors with a caliper twice a week, until the tumors reach a predetermined “target” size of 1 gm. Tumor weights (mg) were estimated from the formula: Tumor weight=(length×width2)÷2 Antitumor activity was evaluated at the maximum tolerated dose (MTD) which is defined as the dose level immediately below which excessive toxicity (i.e. more than one death) occurred. […] When death occurs, the day of death was recorded.
# Tumor response end-point was expressed in terms of tumor growth delay (T−C value), defined as the difference in time (days) required for the treated tumors (T) to reach a predetermined target size compared to those of the control group (C).
# To estimate tumor cell kill, the tumor volume doubling time was first calculated with the formula: TVDT=Median time (days) for control tumors to reach target size−Median time (days) for control tumors to reach half the target size and, Log cell kill=T−C÷(3.32×TVDT).
# Statistical evaluations of data were performed using Gehan's generalized Wilcoxon test.
# [5] = tested on: A2780 human ovarian carcinoma; assay: In vivo antitumor testing, A2780 human ovarian carcinoma xenograft
# Protocol: as §1, §2, §3
# The required numbers of animals needed to detect a meaningful response were pooled at the start of the experiment and each was given a subcutaneous implant of a tumor fragment (˜50 mg) with a 13-gauge trocar. For treatment of early-stage tumors, the animals were again pooled before distribution to the various treatment and control groups. For treatment of animals with advanced-stage disease, tumors were allowed to grow to the predetermined size window (tumors outside the range were excluded) and animals were evenly distributed to various treatment and control groups. […]
# Tumor response was determined by measurement of tumors with a caliper twice a week, until the tumors reach a predetermined “target” size of 1 gm. Tumor weights (mg) were estimated from the formula: Tumor weight=(length×width2)÷2 Antitumor activity was evaluated at the maximum tolerated dose (MTD) which is defined as the dose level immediately below which excessive toxicity (i.e. more than one death) occurred. […] When death occurs, the day of death was recorded. […]
# To estimate tumor cell kill, the tumor volume doubling time was first calculated with the formula: TVDT=Median time (days) for control tumors to reach target size−Median time (days) for control tumors to reach half the target size and, Log cell kill=T−C÷(3.32×TVDT). […]
# [6] = tested on: N87 gastric cancer tumor xenografts; assay: Tumor perfusion studies of CA1P, N87 xenografts
# [7] = Hematological analysis of whole blood, Phase I trial of CA4P; type: in vivo, human
# Protocol: Hematological analysis was performed on whole blood obtained from patients participating in a Phase I trial of CA4P (see Rustin et al., J. Clin. Oncol. (2003)). All patients had histologically confirmed tumors and were either not amenable to standard curative therapy or were refractory to conventional therapy. Blood work was obtained from each patient 1 minute prior to treatment, every 15 minutes for the first hour post-treatment, and at 1.5, 2, 4, 8, 12 and 24 hours following infusion with the first dose of CA4P (52-114 mg/m^2). Art-recognized hematology methods were used in the analysis.
# All full or differential blood cell counts were performed using a hematology flow cytometer (Technicon H2, Bayer Inc.). Total white blood cell (“WBC” or leukocyte) and red blood cell (“RBC” or erythrocyte) counts were established using direct laser flow cytometry. A differential count for leukocyte cells of myeloid origin (e.g. eosinophils, neutrophils, monocytes) was obtained by fluorescent flow cytometry of cells stained for myeloperoxidase. Unstained cells were assumed to be lymphocytes and basophils. Lymphocyte counts were obtained by subtracting those cells that stained […] for a second, basophil-specific cell stain. Mean Corpuscular Volume (MCV) and Mean Corpuscular Haemoglobin (MCH) were also obtained by laser flow cytometry. The haematocrit (Hct) was calculated from the RBC count and the MCV. The coagulant status of each blood sample was determined by measuring fibrinogen content, prothrombin time, and kaolin partial thromboplastin time (when kaolin is used instead of micronised silica as the activator).
# Cell counts were averaged from nineteen patients treated with a range of CA4P doses (52 to 114 mg/m^2). The results of the complete hematological analysis obtained at 4 and 24 hours post-treatment are presented in FIG. 18 as a percentage of the corresponding pretreatment value. […] The increase in white blood cells occurred despite a significant decrease in lymphocyte count (i.e. T and B-lymphocytes). […] The more than 2-fold increase in neutrophils and more than 20% decrease in lymphocytes was transient however, as white blood cell counts returned to normal levels within 24 hours of treatment.
# [8] = tested on: M5076DDP murine fibrosarcoma; assay: In vivo antitumor testing, sc M5076DDP murine fibrosarcoma (resistant to cisplatin and carboplatin); set-up: species or system mice
# Protocol: Fresh preparation of paclitaxel was employed to avoid precipitation.
# M5076 and M5076ddp were maintained in C57BL/6 mice.
# All tumor implants for efficacy testing were subcutaneous (sc).
# The MTD was frequently equivalent to OD. When death occurs, the day of death was recorded.
# M507 6DDP is a murine fibrosarcoma that has developed resistance to cisplatin and cross-resistance to carboplatin. The in vivo antitumor activity of CA4P or CA1P in combination with each of these platinum coordination compounds and CPT-11 were evaluated in M5076DDP tumor bearing mice.
# [9] = tested on: sc A2780 human ovarian carcinoma; assay: Tumor perfusion, Evans blue dye uptake assay, rats; type: in vivo; settings: iv, optimal dose, Evans blue injected an hour later (FIG. 5B)
# Protocol: (§4) The effects of CA4P disodium salt on tumor perfusion were also studied using the Evans blue dye uptake assay. Mice or rats bearing sc A2780 human ovarian carcinoma were administered an iv dose of CA4P disodium salt. An hour later, Evans blue was injected iv. The amount of Evans blue accumulated in the tumor is proportional to the blood flow through the tumor.
# [10] = tested on: sc A2780 human ovarian carcinoma; assay: Tumor perfusion, Evans blue dye uptake assay, mice; type: in vivo; settings: iv, optimal dose, Evans blue injected an hour later (FIG. 5A)
# Protocol: as §4
# [11] = 4 hours following treatment, CA4P 52 to 114 mg/m^2, nineteen patients
structure (smiles),measurement,setting,value
"COc1cc(/C=C\c2ccc(OC)c(OP(=O)(O)O)c2OP(=O)(O)O)cc(OC)c1OC [CA1P, combretastatin A-1 diphosphate]",control of tumor growth,"[1]; second experiment: CA1P and/or carboplatin and paclitaxel, same regime (FIG. 15)",considerable anti-tumor growth delay
same,single agent activity,[2],improved single agent activity
same,inhibition of tumor blood flow,[3]; A2780 xenografts in mice,significantly inhibited tumor blood flow
same,potency of blood flow inhibition relative to CA4P,"[3]; daily single agent for ten days, human tumor xenografts in nude mice (N87, A2780; FIG. 9)",5-10 times
same,complete response (disappearance of tumors),[4],not observed
same,minimum effective dose required for synergistic enhancement,[4],4 to 8 mg/kg
same,log cell kill (LCK),"[5]; CA1P at MTD 9 mg/kg, ip, q1dx8",2.1 LCK
same,maximum tolerated dose (MTD),"[5]; CA1P, ip, q1dx8",9 mg/kg
same,inhibition of tumor blood flow,[6],significantly inhibited tumor blood flow
"COc1ccc(/C=C\c2cc(OC)c(OC)c(OC)c2)cc1OP(=O)(O)O [CA4P, combretastatin A-4 phosphate]",animals still alive at the conclusion of the experiment,[1]; first experiment (FIG. 14),30%
same,control of tumor growth,"[1]; first experiment: CA4P 100 mg/kg, paclitaxel 9 mg/kg, carboplatin 30 mg/kg, once a week for 4 weeks (FIG. 13)",not significantly more effective than paclitaxel and carboplatin
same,decrease in lymphocytes,[7]; [11],more than 20%
same,increase in neutrophils,[7]; [11],more than 2 fold
same,total white blood cell count,"[7]; 4 hours following treatment, CA4P 52 to 114 mg/m^2, nineteen patients, vs pretreatment",highly significant increase
same,time for white blood cell counts to return to normal levels,[7]; after treatment with CA4P,≤ 24 h
same,log cell kill (LCK),"[8]; CA4P single agent, optimal dose 150 mg/kg/inj, iv, everyday x10 (Monday thru Friday), advanced (300 mg) tumors",1.1 LCK
same,CA4P dose sufficient to enhance the antitumor activity of carboplatin,"[8]; iv, q4dx3, doses without single agent activity, carboplatin at a range of dose levels (FIG. 7)",12.5-25 mg/m^2
same,reduction of tumor blood flow,[9],87%
same,single agent antitumor activity,"[4]; CA4P administered Q4Dx3, separate experiment",no activity
same,maximum tolerated dose (MTD) as a single agent,[4]; CA4P single agent,> 250 mg/kg/inj
same,optimal CA4P dose required for therapeutic synergy,[4]; in combination with carboplatin (FIG. 3B),< 90 mg/kg/inj
same,minimum effective dose required for synergistic enhancement,[4],25 to 50 mg/kg
same,log cell kill (LCK),"[5]; CA4P at 150 mg/kg, ip",1.1 LCK
same,reduction of tumor blood flow,[10],67%
"CCc1c2c(nc3ccc(OC(=O)N4CCC(N5CCCCC5)CC4)cc13)-c1cc3c(c(=O)n1C2)COC(=O)[C@]3(O)CC [CPT-11, CPT-11 (irinotecan), reference compound]",log cell kill (LCK),[5]; CPT-11 at its MTD,3.3 LCK
"N.N.O=C([O-])C1(C(=O)[O-])CCC1.[Pt+2] [carboplatin, Carboplatin, reference compound]",complete response (disappearance of tumors),[4],not observed
same,log cell kill (LCK),"[4]; carboplatin alone at MTD 90 mg/kg/inj, iv, Q4Dx3, large sc tumors (300 mg)",1.4 LCK
same,tumor regression / shrinkage,[4]; carboplatin alone at MTD vs best CA4P + carboplatin combination (FIG. 3A),no tumor regression
same,maximum tolerated dose (MTD),"[4]; carboplatin, iv, Q4Dx3",90 mg/kg/inj
N.N.[Cl][Pt][Cl] [cisplatin],shrinkage of tumors following treatment,[8]; combination vs single agent cisplatin (FIG. 1),did not
same,maximum tolerated dose (MTD),[8]; injected every 4 days for 3 doses (Q4Dx3),7.5 mg/kg
same,log cell kill (LCK),"[8]; single agent cisplatin at MTD 7.5 mg/kg, iv, Q4Dx3",0.8 LCK
